Test results published in article PMC5365662, “A Short Double-Stapled Peptide Inhibits Respiratory Syncytial Virus Entry and Spreading” (Antimicrobial Agents and Chemotherapy, 2017).
Bridge positions count the residues as written; N and C are the ends. Square brackets hold non-standard residues; d marks the D form. Peptide text beside a SMILES is read from it. R5 = C=CCCC[C@@](C)(N)C(=O)O; S5 = C=CCCC[C@](C)(N)C(=O)O

Columns and labels:
[1] = Histological analysis of lungs; type: in vivo, BALB/c mice
Method: In order to track the infection, we used the recombinant virus rHRSV-Luc, which was previously shown to allow in vivo imaging studies of RSV replication and spreading and constitutes a powerful and convenient tool for the evaluation of drug efficiency against RSV in the mouse model ([24]). […] Mice were anesthetized at day 3 p.i. and observed alive using the IVIS imaging system 5 min after i.n. injection of D-luciferin. […] At day 3 p.i., a second dose of the peptide was administered to the mice, and the bioluminescence was measured at day 5 p.i. […] At day 7 p.i., a time corresponding to the end of the infection in mice, the animals were sacrificed and the lungs were collected in order to perform a histological analysis. […]
Mice were sacrificed at day 7 p.i., the chest cavity was opened, and the lungs were perfused intratracheally with 4% paraformaldehyde (PFA) in PBS. […] The lungs were embedded in paraffin, and 5-μm sections were cut, stained with hematoxylin-eosin-saffron (HES), and evaluated microscopically. Qualitative histological changes were described and when applicable were scored semiquantitatively using a three-point scale from 0 to 2 (0, none; 1, mild; 2, marked), focusing on histological characterization of lesions (interstitial pneumonia, respiratory epithelial cell apoptosis, and hyperplasia) and inflammation.

HEp-2 cells = assay: Cytotoxicity, CellTiter-Glo Luminescent cell viability assay; type: cell-based; conditions: serial dilutions of peptide, 24 h, duplicates
Method: Viral replication was quantified by measuring the mCherry fluorescence at 48 h p.i. and normalized based on the fluorescence of infected and untreated cells. (B) Cytotoxicity assay. HEp-2 cells were incubated in the presence of serial dilutions of peptides, and cell survival was quantified using the CellTiter-Glo Luminescent cell viability assay 24 h after the addition of the peptides. The signal was normalized based on the luminescence obtained for untreated cells. Error bars are standard deviations from duplicates.
A549 (ATCC CCL-185) cells were maintained in Dulbecco's modified Eagle medium (DMEM) supplemented with 10% fetal calf serum (FCS). HEp-2 (ATCC CCL-23) cells were maintained in Eagle's miminum essential medium (EMEM) supplemented with 10% FCS, 2 mM L-glutamine, and penicillin-streptomycin solution. The cells were grown in an incubator at 37°C in 5% CO2. Cytotoxicity assays were done with the CellTiter-Glo Luminescent cell viability assay (Promega).

[2] = tested on: rHRSV-mCherry in HEp-2 cells; assay: rHRSV-mCherry inhibition assay; type: cell-based, human respiratory syncytial virus
Method in brief: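 HEp-2 cells infected at MOI 0.2 with rHRSV-mCherry preincubated 15–20 min with serially diluted peptide, peptide kept in 2% FBS medium for 48 h at 37°C. Replication read as mCherry fluorescence (ex 580/em 620 nm), normalized to untreated infected cells; duplicates, curves fitted.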

[3] = Far-UV circular dichroism, α-helical content; type: physicochemical; conditions: CD, 10 mM phosphate buffer pH 7.5, 50 μM peptide, 25°C
Method: The circular dichroism spectra were acquired on a Chirascan spectropolarimeter. The samples were prepared in 10 mM phosphate buffer, pH 7.5, at a peptide concentration of 50 μM. Data were recorded at 25°C by step scan from 180 nm to 260 nm in a 0.5-mm path length quartz cell using 1-nm wavelength increments and a response time of 1 s. The data were converted to per residue molar ellipticity units [θ] (degree per square centimeter per decimole per residue) and smoothed using the Igor Pro software. The percentage of helicity was calculated as described previously ([35]).

CC[C@H](C)[C@@H]1NC(=O)[C@H](Cc2ccccc2)NC(=O)[C@@](C)(NC(=O)[C@H](CC(C)C)NC(=O)[C@H](CO)NC(=O)[C@]2(C)CCCC=CCCC[C@@](C)(NC(=O)[C@H](CCC(=O)O)NC(C)=O)C(=O)N[C@@H]([C@@H](C)CC)C(=O)N[C@@H](CC(N)=O)C(=O)N2)CCCC=CCCC[C@@](C)(C(=O)N[C@@H](CO)C(=O)N[C@@H](CC(=O)O)C(=O)N[C@@H](CCC(=O)O)C(=O)N[C@@H](CC(C)C)C(=O)N[C@@H](CC(C)C)C(=O)N[C@@H](Cc2c[nH]cn2)C(=O)N[C@@H](CC(N)=O)C(=O)N[C@H](C(N)=O)C(C)C)NC(=O)[C@H](CCCNC(=N)N)NC1=O [Peptide 4ca] (Ac-E[R5]IN[S5]SL[S5]FIR[S5]SDELLHNV-NH2; staple 2-5, 8-12)
histological changes in lung parenchyma (toxicity) ([1]; 4ca-inoculated versus mock-inoculated noninfected mice, i.n. 50 μl at 50 μM, day 7, HES staining): no histological changes | interstitial pneumonia after RSV infection ([1]; RSV-infected mice treated i.n. with 4ca, day 7 p.i., HES staining): no interstitial pneumonia was observed | cellular toxicity (HEp-2 cells): no cellular toxicity was detected | EC50 ([2]; HEp-2, rHRSV-mCherry MOI 0.2, addition of peptide after infection of cells, 48 h p.i.): 8300 nM | EC50 ([2]; HEp-2, rHRSV-mCherry MOI 0.2, preincubation of the virus with peptide prior to cell infection, 48 h p.i.): 860 nM | EC50 ([2]; HEp-2, rHRSV-mCherry MOI 0.2, preincubation of virus with peptide and peptide maintained in medium after infection, 48 h p.i.): 470 nM | increase of antiviral potency relative to T118 ([2]; HEp-2, rHRSV-mCherry, EC50 versus T118 EC50 6.33 μM): 11 fold | EC50 ([2]; HEp-2 cells, RSV-Cherry MOI 0.2, peptide and virus removed after infection and fresh peptide added, mCherry fluorescence 48 h p.i., at least twice in duplicate): 590 ± 130 nM | EC50 ([2]; Table 3 (Ala scan), HEp-2 cells, rHRSV-mCherry MOI 0.2, 2-fold serial dilutions (11 dilutions), duplicate, ± SD of fit): 780 ± 60 nM | % Helicity ([3]; Table 2): >100% | % Helicity ([3]; Table 3 (Ala scan)): 85%
